Measurements: patent US20240246979A1, “cGAS INHIBITORS” (Eli Lilly and Company, priority 2022, published 2024)

How the values were obtained:
cGAS [1] = biological target: T1, cGAS (Homo sapiens, UniProt Q8N884); assay: Cellular assay to measure cGAS activity (IFNb AlphaLISA in THP1 cells stimulated by RDG-Adenovirus-GFP); format: cell-based; parameters: host or cells: THP1 cells differentiated with PMA and stimulated with RDG-Adenovirus-GFP; conditions: PMA-differentiated THP1 cells, RDG-Adenovirus-GFP at 1000 MOI; inhibition of IFNb production as marker for cGAS activity
T1 sequence (Q8N884 whole entry): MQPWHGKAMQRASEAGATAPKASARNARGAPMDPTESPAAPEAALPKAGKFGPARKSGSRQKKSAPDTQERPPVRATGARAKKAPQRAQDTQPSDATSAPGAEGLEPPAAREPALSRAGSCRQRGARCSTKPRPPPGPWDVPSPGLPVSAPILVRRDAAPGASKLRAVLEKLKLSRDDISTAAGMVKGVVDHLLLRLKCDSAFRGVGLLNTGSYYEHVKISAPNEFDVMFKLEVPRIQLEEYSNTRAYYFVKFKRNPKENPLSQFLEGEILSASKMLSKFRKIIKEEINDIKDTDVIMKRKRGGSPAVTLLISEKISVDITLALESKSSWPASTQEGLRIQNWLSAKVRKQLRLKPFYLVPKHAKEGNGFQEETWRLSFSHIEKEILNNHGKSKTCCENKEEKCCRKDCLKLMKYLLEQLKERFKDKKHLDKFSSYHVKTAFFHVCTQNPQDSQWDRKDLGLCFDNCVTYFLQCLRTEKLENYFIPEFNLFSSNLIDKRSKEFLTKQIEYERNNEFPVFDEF
Outline: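 PMA-differentiated THP1 cells were infected with RDG-Adenovirus-GFP at 1000 MOI for 4 h, then exposed overnight to test compounds. IFNb in the supernatant was quantified by AlphaLISA as a cGAS activity marker, and IC50 was fitted with a 4-parameter logistic equation.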

cGAS [2] = biological target: T1, cGAS; assay: In vitro inhibition assay of cGAS activity (cGAMP production, RapidFire mass spectrometry); format: biochemical; parameters: Insert cDNA encoding full-length of human cGAS; His6; made in house; host or cells: E. coli BL21(DE3); conditions: 10 nM recombinant human cGAS, 60 nM 75-bp dsDNA, 50 μM ATP, 50 μM GTP, 3 hrs
Outline: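 His6-tagged full-length human cGAS (10 nM, E. coli-expressed) was incubated for 3 hrs at ambient temperature with 60 nM 75-bp dsDNA, 50 μM ATP and 50 μM GTP in Tris pH 7.5/MgCl2 buffer with compound dilutions. cGAMP was quantified by RapidFire mass spectrometry against an internal standard, and IC50 was obtained by 4-parameter logistic fit.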

Structure (SMILES) | IC50 (cGAS [1]) [nM] | IC50 (cGAS [2]) [nM]
C[C@H]1C(=O)NCCc2[nH]c3c(Cl)c(Cl)cc(CC#N)c3c21 (single isomer, unassigned) [Example 90] | 993 | 552
Cn1c2c(c3c(OCC#N)cc(Cl)c(Cl)c31)CC(=O)NC[C@H]2CC(C)(C)O (single isomer, unassigned) [Example 111, (R)-2-((7,8-Dichloro-5-(2-hydroxy-2-methylpropyl)-6-methyl-2-oxo-1,2,3,4,5,6-hexahydroazepino[4,5-b]indol-10-yl)oxy)acetonitrile or (S)-2-((7,8-Dichloro-5-(2-hydroxy-2-methylpropyl)-6-methyl-2-oxo-1,2,3,4,5,6-hexahydroazepino[4,5-b]indol-10-yl)oxy)acetonitrile] | 231 | 13.1
Cn1c2c(c3c(OCC#N)cc(Cl)c(Cl)c31)CC(=O)NC[C@H]2CCO (single isomer, unassigned) [Example 126] | 501 | 997
CC1C(=O)NCCc2[nH]c3c(Cl)c(Cl)cc(OCC(F)(F)CO)c3c21 (stereo not shown) [Example 72, 7,8-Dichloro-10-(2,2-difluoro-3-hydroxypropoxy)-1-methyl-3,4,5,6-tetrahydroazepino[4,5-b]indol-2(1H)-one] | 662 | 23.3
COCCNc1cc(Cl)c(Cl)c2[nH]c3c(c12)C(C)C(=O)NCC3 (racemic) [Example 46, 7,8-Dichloro-10-((2-methoxyethyl)amino)-1-methyl-3,4,5,6-tetrahydroazepino[4,5-b]indol-2(1H)-one] | 885 | 22.6
C[C@@H]1C(=O)NCCc2[nH]c3c(Cl)c(Cl)cc(NC(=O)CO)c3c21 (single isomer, unassigned) [Example 12B] | 1700 | 748
Cn1ncc(-c2cc(Cl)c(Cl)c3[nH]c4c(c23)CC(=O)NCC4CCNCC(F)(F)F)n1 (stereo not shown) [Example 112, 7,8-Dichloro-10-(2-methyl-2H-1,2,3-triazol-4-yl)-5-(2-((2,2,2-trifluoroethyl)amino)ethyl)-3,4,5,6-tetrahydroazepino[4,5-b]indol-2(1H)-one] | 2600 | 51.5
CC(=O)OCCCOc1cc(Cl)c(Cl)c2[nH]c3c(c12)C(C)C(=O)NCC3 (racemic) [Example 13, 3-((7,8-Dichloro-1-methyl-2-oxo-1,2,3,4,5,6-hexahydroazepino[4,5-b]indol-10-yl)oxy)propyl acetate] | 582 | 9050
CCOc1cc(Cl)c(Cl)c2[nH]c3c(c12)[C@H](C)C(=O)NCC3 (single isomer, unassigned) [Example 15A] | 793 | 22.4
C[C@@H]1C(=O)NCCc2[nH]c3c(Cl)c(Cl)cc(OCCCO)c3c21 (single isomer, unassigned) [Example 14B] | 4450 | 302
COc1cc(Cl)c(Cl)c2[nH]c3c(c12)C(C)C(=O)NCC3 (stereo not shown) [Example 10, 7,8-Dichloro-10-methoxy-1-methyl-3,4,5,6-tetrahydroazepino[4,5-b]indol-2(1H)-one] | 2730 | 124
C[C@H]1C(=O)NCCc2[nH]c3c(Cl)c(Cl)cc(N[C@@H]4CCOC4)c3c21 (single isomer, unassigned) [Example 64] | 2420 | 37.9
Cn1c2c(c3c(OCC#N)cc(Cl)c(Cl)c31)CC(=O)NC[C@H]2CCO (single isomer, unassigned) [Example 125] | 272 | 18
CC(O)COc1cc(Cl)c(Cl)c2[nH]c3c(c12)CC(=O)NCC3 (stereo not shown) [Example 87, 7,8-Dichloro-10-(2-hydroxypropoxy)-3,4,5,6-tetrahydroazepino[4,5-b]indol-2(1H)-one] | 5970 | 36
CC1C(=O)NCCc2[nH]c3c(Cl)c(Cl)cc(NCc4cocn4)c3c21 (stereo in doubt) [Example 58, (S′)-7,8-Dichloro-1-methyl-10-((oxazol-4-ylmethyl)amino)-3,4,5,6-tetrahydroazepino[4,5-b]indol-2(1H)-one Or (R)-7,8-Dichloro-1-methyl-10-((oxazol-4-ylmethyl)amino)-3,4,5,6-tetrahydroazepino[4,5-b]indol-2(1H)-one] | 577 | 16.5
CC1C(=O)NCCc2[nH]c3c(Cl)c(Cl)cc(NCCO)c3c21 (single isomer, unassigned) [Example 50, 7,8-Dichloro-10-((2-hydroxyethyl)amino)-1-methyl-3,4,5,6-tetrahydroazepino[4,5-b]indol-2(1H)-one] | 286 | 9.62
COCC(=O)Nc1cc(Cl)c(Cl)c2[nH]c3c(c12)[C@@H](C)C(=O)NCC3 (single isomer, unassigned) [Example 40] | 787 | 27.3

Further lines, results first:

IC50 (cGAS [1]) [nM] | IC50 (cGAS [2]) [nM] | Structure (SMILES)
> 10000 | 1810 | COCC[C@H]1CNC(=O)[C@H](C)c2c1[nH]c1c(Cl)c(Cl)cc(NCCO)c21 (single isomer, unassigned) [Example 172]
1270 | 38.4 | N#CCc1cc(Cl)c(Cl)c2c1c1c3n2CCC3CNC(=O)C1 (stereo not shown) [Example 114, 2-(8,9-Dichloro-2-oxo-2,3,4,4a, 5,6-hexahydro-1H-azepino[3,4,5-gh]benzo[b]pyrrolizin-11-yl)acetonitrile]
5170 | 237 | C[C@@H]1CNC(=O)Cc2c1[nH]c1c(Cl)c(Cl)cc(-c3cnn(C)n3)c21 (single isomer, unassigned) [Example 147]
1950 | 22.4 | N#CCOc1cc(Cl)c(Cl)c2c1c1c3n2CCC3CNC(=O)C1 (stereo not shown) [Example 115, 2-((8,9-Dichloro-2-oxo-2,3,4,4a, 5,6-hexahydro-1H-azepino[3,4,5-gh]benzo[b]pyrrolizin-11-yl)oxy)acetonitrile]
1180 | 45.6 | C[C@H](O)C(=O)Nc1cc(Cl)c(Cl)c2[nH]c3c(c12)[C@@H](C)C(=O)NCC3(C)C (single isomer, unassigned) [Example 182, (S)—N—((R)-7,8-Dichloro-1,5,5-trimethyl-2-oxo-1,2,3,4,5,6-hexahydroazepino[4,5-b]indol-10-yl)-2-hydroxypropanamide or (S)—N—((S)-7,8-dichloro-1,5,5-trimethyl-2-oxo-1,2,3,4,5,6-hexahydroazepino[4,5-b]indol-10-yl)-2-hydroxypropanamide]
1730 | 44.2 | CC1Cc2[nH]c3c(Cl)c(Cl)cc(NCCO)c3c2CC(=O)N1 (stereo not shown) [Example 165, 7,8-Dichloro-10-((2-hydroxyethyl)amino)-4-methyl-3,4,5,6-tetrahydroazepino[4,5-b]indol-2(1H)-one]
1440 | 54.6 | Cn1ncc(-c2cc(Cl)c(Cl)c3[nH]c4c(c23)CC(=O)NC[C@H]4CCN2CCOCC2)n1 (single isomer, unassigned) [Example 175]
1380 | 18.9 | CCCC1CNC(=O)Cc2c1[nH]c1c(Cl)c(Cl)cc(-c3cnn(C)n3)c21 (stereo not shown) [Example 164, 7,8-Dichloro-10-(2-methyl-2H-1,2,3-triazol-4-yl)-5-propyl-3,4,5,6-tetrahydroazepino[4,5-b]indol-2(1H)-one]
1280 | 16.4 | CC1C(=O)NCCc2c1c1c(NCCO)cc(Cl)c(Cl)c1n2C(F)F (racemic) [Example 140, 7,8-Dichloro-6-(difluoromethyl)-10-((2-hydroxyethyl)amino)-1-methyl-3,4,5,6-tetrahydroazepino[4,5-b]indol-2(1H)-one]
624 | 12.8 | COCC[C@@H]1CNC(=O)Cc2c1[nH]c1c(Cl)c(Cl)cc(-c3cnn(C)n3)c21 (single isomer, unassigned) [Example 167]
1850 | 40.9 | CC1C(=O)NCCc2[nH]c3c(Cl)c(Cl)cc(OC4COC4)c3c21 (stereo not shown) [Example 183, 7,8-Dichloro-1-methyl-10-(oxetan-3-yloxy)-3,4,5,6-tetrahydroazepino[4,5-b]indol-2(1H)-one]
1570 | 16 | Cn1ncc(-c2cc(Cl)c(Cl)c3[nH]c4c(c23)CC(=O)NC[C@H]4CC(C)(F)F)n1 (single isomer, unassigned) [Example 136]
> 10000 | > 39800 | C[C@@H]1C(=O)NCCc2c1c1c(NC(=O)CO)cc(Cl)c(Cl)c1n2CC(F)(F)F (single isomer, unassigned) [Example 187, (S)—N-(7,8-Dichloro-1-methyl-2-oxo-6-(2,2,2-trifluoroethyl)-1,2,3,4,5,6-hexahydroazepino[4,5-b]indol-10-yl)-2-hydroxyacetamide or (R)—N-(7,8-Dichloro-1-methyl-2-oxo-6-(2,2,2-trifluoroethyl)-1,2,3,4,5,6-hexahydroazepino[4,5-b]indol-10-yl)-2-hydroxyacetamide]
2440 | 35.4 | COCCNc1cc(Cl)c(Cl)c2c1c1c(n2C(F)F)CCNC(=O)C1C (stereo not shown) [Example 141, 7,8-Dichloro-6-(difluoromethyl)-10-((2-methoxyethyl)amino)-1-methyl-3,4,5,6-tetrahydroazepino[4,5-b]indol-2(1H)-one]
483 | 7.84 | COCC[C@H]1CNC(=O)[C@H](C)c2c1[nH]c1c(Cl)c(Cl)cc(NCCO)c21 (single isomer, unassigned) [Example 171]
